The target in data set [1] is T1, human glucagon receptor (Glucagon-R) (Homo sapiens, UniProt P47871).
T1 construct: expressed in transfected cells
Description: Glucagon receptor efficacy assay (cAMP AlphaScreen, CHO cells). The note with it: Table 1A; CHO cells expressing human Glucagon-R, cAMP; read-out: EC50 hGCGR CHO-K1. Format: cell-based. Put shortly: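 Stably transfected CHO clones expressing human GLP-1R or glucagon receptor were treated with increasing peptide concentrations for 15 min at room temperature in KRBH containing 0.1 mM IBMX. After lysis, cAMP was quantified by AlphaScreen; EC50 and efficacy relative to GLP-1 or glucagon reference came from curve fitting.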

Data set [2] has as its target T2, endogenous glucagon receptor (Rattus norvegicus, UniProt P30082).
T2 construct: Agonistic activity of the test compounds on endogenous glucagon receptor; endogenous in cells; host or cells: primary rat hepatocytes
Put plainly: Agonistic activity on endogenous glucagon receptor (glycogen synthesis rate in primary rat hepatocytes). The note with it: inhibition of glycogen synthesis rate, 3 hours, read-out: EC50 GLP-1R Rat hepat. It is filed as cell-based. Put shortly:
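Primary rat hepatocytes (40,000 cells/well, cultured 24 h) incubated 3 h with compound in KRBH buffer with 0.1% BSA, 22.5 mM glucose and D-[U14C]glucose. 14C incorporated into precipitated glycogen counted, background-subtracted and expressed as % of 0.1% DMSO vehicle (100% CTL). pEC50 from cpm versus log concentration; agonism lowers glycogen synthesis.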

Data set [3] in a line: Pharmacokinetic parameters after subcutaneous and intravenous administration to mice. Format: in vivo. Particulars: male, mouse, plasma, 20 nmol/kg, C57Bl/6J mice; for half-life: read-out: Terminal half life (converted); for MRT: read-out: Mean Residence Time. Put shortly: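 Male C57Bl/6J mice (8–11 weeks) given GLP-1-glucagon dual agonists at 20 nmol/kg s.c. (neck) or i.v. (tail vein), dosing solution 4 μM in PBS with 25 mM phosphate, pH 7.4. Plasma sampled to 24 h, measured by LC-MS/MS; parameters by non-compartmental analysis.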

This note sets out measurements from patent publication US10253081B2, “Glucagon analogues” (Zealand Pharma A/S, priority 2012, dated 2019).

pEC50: −log10 of the molar value. Where two headings read alike, the source gives them in different places. *1 amine or outer side, *2 acyl side, *3 side chain or, on linkers, in order; H or OH if unused. Where a SMILES comes first, the peptide text is derived from it. Side-chain parts run from the residue outwards. [ ]: non-standard residue; d: D form. The star is where a group is joined. γGlu = O=C(O)[C@H](CCC(=O)[*:2])N[*:1]; Palmitoyl = CCCCCCCCCCCCCCCC(=O)*; Aib = CC(C)(N)C(=O)O

T1 sequence (P47871 26-477): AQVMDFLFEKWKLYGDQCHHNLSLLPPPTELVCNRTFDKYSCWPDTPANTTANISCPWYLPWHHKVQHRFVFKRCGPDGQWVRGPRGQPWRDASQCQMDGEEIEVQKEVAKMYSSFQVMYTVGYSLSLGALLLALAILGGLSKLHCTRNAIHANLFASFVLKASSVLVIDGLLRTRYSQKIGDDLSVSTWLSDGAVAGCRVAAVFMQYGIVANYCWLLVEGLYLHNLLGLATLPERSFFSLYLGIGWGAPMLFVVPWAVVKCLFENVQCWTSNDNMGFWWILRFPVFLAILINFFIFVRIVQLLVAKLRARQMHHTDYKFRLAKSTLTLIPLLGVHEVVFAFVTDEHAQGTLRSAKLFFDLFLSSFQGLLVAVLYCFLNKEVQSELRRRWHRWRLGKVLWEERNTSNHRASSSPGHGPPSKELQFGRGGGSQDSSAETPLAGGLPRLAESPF
T2 sequence (P30082 27-485): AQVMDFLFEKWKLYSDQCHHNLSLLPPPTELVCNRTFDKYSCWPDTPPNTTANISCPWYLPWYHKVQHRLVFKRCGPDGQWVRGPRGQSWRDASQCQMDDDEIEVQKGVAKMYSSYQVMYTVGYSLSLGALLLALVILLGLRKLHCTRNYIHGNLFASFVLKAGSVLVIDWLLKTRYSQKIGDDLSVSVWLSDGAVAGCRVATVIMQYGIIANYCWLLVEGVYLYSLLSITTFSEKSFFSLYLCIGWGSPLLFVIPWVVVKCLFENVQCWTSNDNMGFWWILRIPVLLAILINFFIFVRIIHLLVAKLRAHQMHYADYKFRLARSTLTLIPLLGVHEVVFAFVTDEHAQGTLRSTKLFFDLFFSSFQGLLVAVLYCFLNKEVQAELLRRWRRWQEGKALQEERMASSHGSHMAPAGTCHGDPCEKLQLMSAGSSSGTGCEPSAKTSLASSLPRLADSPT

As for `CCCCCCCCCCCCCCCC(=O)N[C@@H](CCC(=O)NCCCC[C@H](NC(=O)[C@H](CO)NC(=O)[C@H](CC(=O)O)NC(=O)[C@H](CC(C)C)NC(=O)[C@H](Cc1ccc(O)cc1)NC(=O)[C@H](CCCCN)NC(=O)[C@H](CO)NC(=O)[C@H](Cc1ccc(O)cc1)NC(=O)[C@H](CC(=O)O)NC(=O)[C@H](CO)NC(=O)[C@@H](NC(=O)[C@H](Cc1ccccc1)NC(=O)[C@@H](NC(=O)CNC(=O)[C@H](CCC(N)=O)NC(=O)[C@H](CO)NC(=O)[C@@H](N)Cc1c[nH]cn1)[C@@H](C)O)[C@@H](C)O)C(=O)N[C@@H](C)C(=O)N[C@@H](C)C(=O)N[C@@H](Cc1c[nH]cn1)C(=O)N[C@@H](CC(=O)O)C(=O)N[C@@H](Cc1ccccc1)C(=O)N[C@H](C(=O)N[C@@H](CCC(=O)O)C(=O)N[C@@H](Cc1c[nH]c2ccccc12)C(=O)N[C@@H](CC(C)C)C(=O)N[C@@H](CC(C)C)C(=O)N[C@@H](CO)C(N)=O)C(C)C)C(=O)O` [Compound 8, H-HSQGTFTSDYSKYLDS-K(Hexadecanoyl-isoGlu)-AAHDFVEWLLS-NH2] (H-HSQGTFTSDYSKYLDSK([γGlu-Palmitoyl])AAHDFVEWLLS-NH2), the pEC50 in data set [1] is 9.54. For the same molecule, the pEC50 in data set [2] was 8.96. In data set [3] (IV), the clearance is 0.128 mL/min/kg and the half-life was 3.9 h. In data set [3] (SC), the Tmax came out at 4 h, the bioavailability worked out at 42%, the MRT stood at 8.1 h and the half-life was 4.1 h.

As for `CCCCCCCCCCCCCCCC(=O)N[C@@H](CCC(=O)NCCCC[C@H](NC(=O)[C@H](CO)NC(=O)[C@H](CC(=O)O)NC(=O)[C@H](CC(C)C)NC(=O)[C@H](Cc1ccc(O)cc1)NC(=O)[C@H](CCCCN)NC(=O)[C@H](CO)NC(=O)[C@H](Cc1ccc(O)cc1)NC(=O)[C@H](CC(=O)O)NC(=O)[C@H](CO)NC(=O)[C@@H](NC(=O)[C@H](Cc1ccccc1)NC(=O)[C@@H](NC(=O)CNC(=O)[C@H](CCC(N)=O)NC(=O)[C@H](CO)NC(=O)[C@@H](N)Cc1c[nH]cn1)[C@@H](C)O)[C@@H](C)O)C(=O)N[C@@H](C)C(=O)N[C@@H](C)C(=O)N[C@@H](Cc1c[nH]cn1)C(=O)N[C@@H](CC(=O)O)C(=O)N[C@@H](Cc1ccccc1)C(=O)N[C@H](C(=O)N[C@@H](CCC(=O)O)C(=O)N[C@@H](Cc1c[nH]c2ccccc12)C(=O)N[C@@H](CC(C)C)C(=O)N[C@@H](CC(C)C)C(=O)N[C@@H](CCCNC(=N)N)C(=O)O)C(C)C)C(=O)O` [Compound 9, H-HSQGTFTSDYSKYLDS-K(Hexadecanoyl-isoGlu)-AAHDFVEWLLR-OH] (H-HSQGTFTSDYSKYLDSK([γGlu-Palmitoyl])AAHDFVEWLLR-OH), the pEC50 in data set [1] is 9.60. Moreover, in data set [2], the pEC50 is 9.43. Further, in data set [3] (IV), the clearance is 0.638 mL/min/kg and the half-life is 0.9 h. In data set [3] (SC), the Tmax was found to be 2 h, the bioavailability came out at 34%, the MRT was determined as 4.7 h and the half-life was 2.9 h.

As for `CCCCCCCCCCCCCCCC(=O)N[C@@H](CCC(=O)NCCCC[C@H](NC(=O)[C@H](CCC(=O)O)NC(=O)[C@H](CC(=O)O)NC(=O)[C@H](CC(C)C)NC(=O)[C@H](Cc1ccc(O)cc1)NC(=O)[C@H](CCCCN)NC(=O)[C@H](CO)NC(=O)[C@H](Cc1ccc(O)cc1)NC(=O)[C@H](CC(=O)O)NC(=O)[C@H](CO)NC(=O)[C@@H](NC(=O)[C@H](Cc1ccccc1)NC(=O)[C@@H](NC(=O)CNC(=O)[C@H](CCC(N)=O)NC(=O)[C@H](CO)NC(=O)[C@@H](N)Cc1c[nH]cn1)[C@@H](C)O)[C@@H](C)O)C(=O)N[C@@H](C)C(=O)N[C@@H](C)C(=O)N[C@@H](Cc1c[nH]cn1)C(=O)N[C@@H](CCC(=O)O)C(=O)N[C@@H](Cc1ccccc1)C(=O)N[C@H](C(=O)N[C@@H](CCC(=O)O)C(=O)N[C@@H](Cc1c[nH]c2ccccc12)C(=O)N[C@@H](CC(C)C)C(=O)N[C@@H](CCC(=O)O)C(=O)N[C@@H](CO)C(=O)N[C@@H](C)C(N)=O)C(C)C)C(=O)O` [Compound 10, H-HSQGTFTSDYSKYLDE-K(Hexadecanoyl-isoGlu)-AAHEFVEWLESA-NH2] (H-HSQGTFTSDYSKYLDEK([γGlu-Palmitoyl])AAHEFVEWLESA-NH2), in data set [1], the pEC50 is 9.64. Further, the pEC50 in data set [2] was 10.40. Also, in data set [3] (IV), the clearance is 0.355 mL/min/kg and the half-life is 3 h. In data set [3] (SC), the time to peak (Tmax) was 2 h, the bioavailability was 80%, the MRT amounted to 6.5 h and the half-life is 3.7 h.

For `CCCCCCCCCCCCCCCC(=O)N[C@@H](CCC(=O)NCCCC[C@H](NC(=O)[C@H](CO)NC(=O)[C@H](CC(=O)O)NC(=O)[C@H](CC(C)C)NC(=O)[C@H](Cc1ccc(O)cc1)NC(=O)[C@H](CCCNC(=N)N)NC(=O)[C@H](CO)NC(=O)[C@H](Cc1ccc(O)cc1)NC(=O)[C@H](CC(=O)O)NC(=O)[C@H](CO)NC(=O)[C@@H](NC(=O)[C@H](Cc1ccccc1)NC(=O)[C@@H](NC(=O)CNC(=O)[C@H](CCC(N)=O)NC(=O)[C@H](CO)NC(=O)[C@@H](N)Cc1c[nH]cn1)[C@@H](C)O)[C@@H](C)O)C(=O)N[C@@H](C)C(=O)N[C@@H](C)C(=O)N[C@@H](Cc1c[nH]cn1)C(=O)N[C@@H](CC(=O)O)C(=O)N[C@@H](Cc1ccccc1)C(=O)N[C@H](C(=O)N[C@@H](CCC(=O)O)C(=O)N[C@@H](Cc1c[nH]c2ccccc12)C(=O)N[C@@H](CC(C)C)C(=O)N[C@@H](CC(C)C)C(=O)N[C@@H](CO)C(=O)N[C@@H](C)C(N)=O)C(C)C)C(=O)O` [Compound 12, H-HSQGTFTSDYSRYLDS-K(Hexadecanoyl-isoGlu)-AAHDFVEWLLSA-NH2] (H-HSQGTFTSDYSRYLDSK([γGlu-Palmitoyl])AAHDFVEWLLSA-NH2), the pEC50 in data set [1] is 9.37. For the same molecule, the pEC50 in data set [2] was 9.62. In data set [3] (IV), the clearance was 0.225 mL/min/kg and the half-life is 4.1 h. For the same molecule, in data set [3] (SC), the Tmax worked out at 6 h, the bioavailability is 43%, the MRT is 8.3 h and the half-life was 4.3 h.

In the case of `CCCCCCCCCCCCCCCC(=O)N[C@@H](CCC(=O)NCCCC[C@H](NC(=O)[C@H](CO)NC(=O)[C@H](CC(=O)O)NC(=O)[C@H](CC(C)C)NC(=O)[C@H](Cc1ccc(O)cc1)NC(=O)[C@H](CCCCN)NC(=O)[C@H](CO)NC(=O)[C@H](Cc1ccc(O)cc1)NC(=O)[C@H](CC(=O)O)NC(=O)[C@H](CO)NC(=O)[C@@H](NC(=O)[C@H](Cc1ccccc1)NC(=O)[C@@H](NC(=O)CNC(=O)[C@H](CCC(N)=O)NC(=O)C(C)(C)NC(=O)[C@@H](N)Cc1c[nH]cn1)[C@@H](C)O)[C@@H](C)O)C(=O)N[C@@H](C)C(=O)N[C@@H](C)C(=O)N[C@@H](Cc1c[nH]cn1)C(=O)N[C@@H](CC(=O)O)C(=O)N[C@@H](Cc1ccccc1)C(=O)N[C@H](C(=O)N[C@@H](CCC(=O)O)C(=O)N[C@@H](Cc1c[nH]c2ccccc12)C(=O)N[C@@H](CC(C)C)C(=O)N[C@@H](CC(C)C)C(=O)N[C@@H](CO)C(=O)N[C@@H](C)C(=O)O)C(C)C)C(=O)O` [Compound 13, H-H-Aib-QGTFTSDYSKYLDS-K(Hexadecanoyl-isoGlu)-AAHDFVEWLLSA-OH], in data set [1], the pEC50 was 9.01. The pEC50 in data set [2] was 9.17. Moreover, in data set [3] (IV), the clearance was 0.148 mL/min/kg and the half-life is 6.3 h. Besides, in data set [3] (SC), the Tmax is 4 h, the bioavailability came out at 76%, the MRT turned out to be 14.7 h and the half-life was 8.6 h.

For `CCCCCCCCCCCCCCCC(=O)N[C@@H](CCC(=O)NCCCC[C@H](NC(=O)[C@H](CCC(=O)O)NC(=O)[C@H](CC(=O)O)NC(=O)[C@H](CC(C)C)NC(=O)[C@H](Cc1ccc(O)cc1)NC(=O)[C@H](CCCCN)NC(=O)[C@H](CO)NC(=O)[C@H](Cc1ccc(O)cc1)NC(=O)[C@H](CC(=O)O)NC(=O)[C@H](CO)NC(=O)[C@@H](NC(=O)[C@H](Cc1ccccc1)NC(=O)[C@@H](NC(=O)CNC(=O)[C@H](CCC(N)=O)NC(=O)C(C)(C)NC(=O)[C@@H](N)Cc1c[nH]cn1)[C@@H](C)O)[C@@H](C)O)C(=O)N[C@@H](CCCNC(=N)N)C(=O)N[C@@H](C)C(=O)N[C@@H](CCCCN)C(=O)N[C@@H](CC(=O)O)C(=O)N[C@@H](Cc1ccccc1)C(=O)N[C@H](C(=O)N[C@@H](CCC(=O)O)C(=O)N[C@@H](Cc1c[nH]c2ccccc12)C(=O)N[C@@H](CC(C)C)C(=O)N[C@@H](CC(C)C)C(=O)N[C@@H](CO)C(=O)N[C@@H](C)C(=O)O)[C@@H](C)CC)C(=O)O` [Compound 14, H-H-Aib-QGTFTSDYSKYLDE-K(Hexadecanoyl-isoGlu)-RAKDFIEWLLSA-OH] (H-H[Aib]QGTFTSDYSKYLDEK([γGlu-Palmitoyl])RAKDFIEWLLSA-OH), in data set [1], the pEC50 was 9.27. Also, the pEC50 in data set [2] was 10.00. Moreover, in data set [3] (IV), the clearance is 0.225 mL/min/kg and the half-life is 6.2 h. Moreover, in data set [3] (SC), the Tmax amounted to 4 h, the bioavailability is 64%, the MRT worked out at 12.2 h and the half-life was 6.1 h.
